Here are results for 3 compounds from US9394299B2, “Rilyazine derivatives and compositions for the treatment of cancer” (Warner Babcock Institute for Green Chemistry, LLC, priority 2013, dated 2016).

Entries after “also recorded” stand apart in the source; their conditions may differ. Read-outs that look alike come from different tables or passages of the source.

For the test, the system named is 60 cell lines (human tumor cell lines of the cancer screening panel). Kind of test: NCI 60 cell line screening, single point dosing at 10 μM (SRB). It counts as cell-based. The following applies: for GI50: Homo sapiens, read-out: GI50 (NCI Results, single point, 10 μM); for Delta of Growth Percent across all cell lines / Mean Growth Percent across all cell lines: single dose 10^−5 M. The protocol:
The screening is a two-stage process, beginning with the evaluation of all compounds against 60 cell lines at a single dose of 10^−5 M.
The human tumor cell lines of the cancer screening panel are grown in RPMI 1640 medium containing 5% fetal bovine serum and 2 mM L-glutamine. Cells are inoculated into 96 well microtiter plates in 100 μL at plating densities ranging from 5,000 to 40,000 cells/well depending on the doubling time of individual cell lines. After cell inoculation, the microtiter plates are incubated at 37° C., 5% CO2, 95% air and 100% relative humidity for 24 h prior to addition of experimental drugs.
After 24 h, two plates of each cell line are fixed in situ with TCA, to represent a measurement of the cell population for each cell line at the time of drug addition Time Zero (Tz). Experimental drugs are solubilized in dimethyl sulfoxide:glycerol 9:1 at 400-fold the desired final maximum test concentration and stored frozen at −70° C. prior to use. At the time of drug addition, an aliquot of frozen concentrate is thawed and diluted to twice the desired final maximum test concentration with complete medium containing 50 μg/ml gentamicin. Additional four, 10-fold or ½ log serial dilutions are made to provide a total of five drug concentrations plus control. Aliquots of 100 μl of these different drug dilutions are added to the appropriate microtiter wells already containing 100 μl of medium, resulting in the required final drug concentrations.
Positive control is prepared by adding the known anti-tumor agent adriamycin, NSC 123127, prepared and stored the same as the compounds for testing.
Following drug addition, the plates are incubated for an additional 48 h at 37° C., 5% CO2, 95% air, and 100% relative humidity. For adherent cells, the assay is terminated by the addition of cold TCA. Cells are fixed in situ by the gentle addition of 50 μl of cold 50% (w/v) TCA (final concentration, 10% TCA) and incubated for 60 minutes at 4° C. The supernatant is discarded, and the plates are washed five times with tap water and air dried. Sulforhodamine B (SRB) solution (100 μl) at 0.4% (w/v) in 1% acetic acid is added to each well, and plates are incubated for 10 minutes at room temperature. After staining, unbound dye is removed by washing five times with 1% acetic acid and the plates are air dried. Bound stain is subsequently solubilized with 10 mM trizma base, and the absorbance is read on an automated plate reader at a wavelength of 515 nm. For suspension cells, the methodology is the same except that the assay is terminated by fixing settled cells at the bottom of the wells by gently adding 50 μl of 80% TCA (final concentration, 16% TCA).
For the 1-dose 60 cell testing, the Growth Percent is calculated for each cell line/drug combination from the absorbance measurement for the no-drug control (C), the absorbance at time zero (Tz) and the absorbance measurement after incubation of the cells in the presence of drug (Ti): Growth Percent=[(Ti−Tz)/(C−Tz)]×100 for cell line/drug combinations for which Ti≧Tz. Growth Percent=[(Ti−Tz)/Tz]×100 for cell line/drug combinations for which Ti<Tz.
Calculation of the Growth Percent by these equations allows detection of both growth inhibition (Growth Percent values between 0 and 100) and lethality (Growth Percent values less than 0). For example, a Growth Percent value of 100 means no growth inhibition. A Growth Percent value of 40 would mean 60% growth inhibition. A Growth Percent value of 0 means no net growth over the course of the experiment, or “cytostatic”, no change by growth or cell death. A Growth Percent value of −40 would mean 40% lethality. A Growth Percent value of −100 means all cells are dead.
For 1-dose 60 cell testing, the Mean Growth Percent, Delta and Range across all 60 cell lines are also calculated. The Deviation of each cell line/drug combination from the Mean is also calculated and plotted: Deviation=Mean Growth Percent−Growth Percent […]

Where [1] appears, read: single point 10 μM, 60 cell lines.

A word on the GI50: it is the concentration at which growth is held to half of that of the control. Turning to `O=c1c2ncccc2c(-c2ccccn2)nn1C1CCCCC1` [RL-3, 7-Cyclohexyl-5-(pyridin-2-yl)pyrido[2,3-d]pyridazin-8(7H)-one], the GI50 (60 cell) is above 10 µM. Besides, for the setting “60 cell lines”, the “Delta of Growth Percent across all cell lines” value is listed as 24.63 and the “Mean Growth Percent across all cell lines” value stood at 101.11%. For the same compound, the “anti-proliferative effect / growth inhibition (in words)” value under setting [1] is listed as “little to no effect on cell growth; also recorded: little to no appreciable anti-proliferative effects”.
As to `S=c1c2cccnc2c(-c2ccccn2)nn1C1CCCCC1` [RL-2, 6-cyclohexyl-8-(pyridin-2-yl)pyrido[2,3-d]pyridazine-5(6H)-thione], under setting [1], the GI50 is above 10 µM and the “anti-proliferative effect / growth inhibition (in words)” value was “little to no effect on cell growth; also recorded: little to no appreciable anti-proliferative effects”. Under “60 cell lines”, the “Delta of Growth Percent across all cell lines” value came to 30.65 and the “Mean Growth Percent across all cell lines” value came out at 99.96%.
`O=c1c2cccnc2c(-c2ccccn2)nn1C1CCCCC1` [RL-1, 6-cyclohexyl-8-(pyridin-2-yl)pyrido[2,3-d]pyridazin-5(6H)-one]: the GI50 (60 cell) is above 10 µM. Under “60 cell lines”, the “Delta of Growth Percent across all cell lines” value is reported as 11.75 and the “Mean Growth Percent across all cell lines” value was found to be 104.31%. For the same compound, the “anti-proliferative effect / growth inhibition (in words)” value under setting [1] is “little to no effect on cell growth; also recorded: little to no appreciable anti-proliferative effects”.
